Structures can show the parent of a compound that is named as a salt.
Each molecule was assayed against T1, human LCE (Homo sapiens, UniProt Q9H5J4) (assay: LCE enzyme activity-inhibitory test). Conditions: [14C]-malonyl CoA / palmitoyl CoA substrate, 37° C., 90 minutes.
T1 sequence (Q9H5J4 1-265): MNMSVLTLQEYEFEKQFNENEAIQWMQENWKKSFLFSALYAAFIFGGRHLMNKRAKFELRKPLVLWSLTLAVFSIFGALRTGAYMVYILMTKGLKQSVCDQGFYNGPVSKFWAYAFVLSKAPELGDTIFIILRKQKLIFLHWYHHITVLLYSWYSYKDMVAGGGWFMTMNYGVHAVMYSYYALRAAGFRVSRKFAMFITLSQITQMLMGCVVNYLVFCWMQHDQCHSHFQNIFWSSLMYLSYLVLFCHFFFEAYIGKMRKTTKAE
Assay type: biochemical
Experimental: Pharmacological Test Example 1 (LCE Enzyme Activity-inhibitory Test)
A test compound was dissolved in dimethyl sulfoxide (DMSO to be 10 mM), and then diluted with DMSO to prepare a 1000-fold concentrated solution of the test concentration. An improved Moon et al's method (J. Biol. Chem., Vol. 276, pp. 45358-45366, 2001) was employed for the LCE enzyme activity-inhibitor test. Concretely, the diluted compound was applied to a 96-well assay plate (Corning, 96-well assay block) in an amount of 1.0 μL/well; 50 μL of a phosphate buffer solution (100 mM potassium phosphate buffer, pH 6.5), and 25 μL of a substrate solution (100 mM potassium phosphate buffer (pH 6.5), 4.0 μM rotenone, 80 μM fatty acid-free bovine serum albumin, 160 μM palmitoyl CoA, 80 μM malonyl CoA, 3.5 μM [^14C]-malonyl CoA (1.92 GBq/mmol, by Amersham)) were added to each well; 25 μL of an enzyme solution (100 mM potassium phosphate buffer (pH 6.5), 100 μg/mL human LCE) was added thereto; the top of the plate was airtightly sealed up; and this was incubated with gently shaking and stirring at 37° C. for 90 minutes. Next, 100 μL of 5 M hydrochloric acid was added to each well, and the assay plate was stirred at room temperature for 5 minutes to stop the enzyme reaction with hydrolyzing the acyl CoA. Next, the enzyme reaction solution in each well was adsorbed by each well of a 96-well GF/C filter plate (Perkin Elmer Unifilter 96 GF/C); the individual wells were washed with water to remove the non-adsorbed malonyl CoA; and the GF/C filter plate was dried at 50° C. for 60 minutes. Next, 30 μL of a scintillator (Perkin Elmer Microscinti 0) was added to each well; then the top of the plate was sealed up; and the fixed [^14C] radioactivity was measured with a microplate scintillation counter (Perkin Elmer TopCount) to be the enzyme activity. The human LCE enzyme-inhibitory activity of the test compound was calculated, based on the radioactivity of the DMSO-added well with no test compound therein as a control.

| SMILES | IC50 [nM] |
| --- | --- |
| COc1cccnc1NC(=O)c1cccc(S(=O)(=O)c2ccccc2)c1 [Example 135, N-(3-methoxypyridin-2-yl)-3-(phenylsulfonyl)benzamide] | 510 |
| COc1ccc(NC(=O)c2cccc(S(=O)(=O)NC(C)(C)C)c2)cc1 [Example 45, 3-[(Tert-butylamino)sulfonyl]-N-(4-methoxyphenyl)benzamide] | 10000 |
| CC(C)c1ccc(NC(=O)c2cccc(S(=O)(=O)c3ccccc3)n2)cc1 [Example 157, N-(4-isopropylphenyl)-6-(phenylsulfonyl)pyridine-2-carboxamide] | 1400 |
| CC(C)Oc1ccc(NC(=O)c2cc(S(=O)(=O)N3CCCCC3)ccc2OCCC#N)cc1 [Example 153, 2-(Cyanoethoxy)-N-(4-isopropoxyphenyl)-5-(piperidin-1-ylsulfonyl)benzamide] | 420 |
| O=C(NCCCc1ccccc1)c1cccc(S(=O)(=O)N2CCCCC2)c1 [Example 86, N-(3-phenylpropyl)-3-(piperidin-1-ylsulfonyl)benzamide] | 3000 |
| CC(C)Oc1ccc(NC(=O)c2cccc(S(=O)(=O)c3nc[nH]n3)c2)cc1 [Example 142, N-(4-isopropoxyphenyl)-3-(1H-1,2,4-triazol-3-ylsulfonyl)benzamide] | 5100 |
| CC(=O)c1ccc(NC(=O)c2cccc(S(=O)(=O)N3CCCCC3)c2)cc1 [Example 92, N-(4-acetylphenyl)-3-(piperidin-1-ylsulfonyl)benzamide] | 9100 |
| COc1cc(S(=O)(=O)c2ccccc2)cnc1NC(=O)c1cccc(S(=O)(=O)N2CCCC2)c1 [Example 112, N-[3-methoxy-5-(phenylsulfonyl)pyridin-2-yl]-3-(pyrrolidin-1-ylsulfonyl)benzamide] | 9500 |
| COc1ccc(NC(=O)c2cccc(S(=O)(=O)N3CCCCC3)c2)cc1 [Example 46, N-(4-methoxyphenyl)-3-(piperidin-1-ylsulfonyl)benzamide] | 790 |
| COc1ccc(NC(=O)c2cccc(S(=O)(=O)N3CCCCC3)c2)c(OC)n1 [Example 96, N-(2,6-dimethoxypyridin-3-yl)-3-(piperidin-1-ylsulfonyl)benzamide] | 320 |
| CC(C)Oc1ccc(NC(=O)CCc2cccc(S(=O)(=O)N3CCCCC3)c2)cc1 [Example 162, N-(4-isopropoxyphenyl)-3-[3-(piperidin-1-ylsulfonyl)phenyl]propanamide] | 1500 |
| COc1ccc(NC(=O)c2cccc(S(=O)(=O)C3CCCCC3)c2)cc1 [Example 146, 3-(Cyclohexylsulfonyl)-N-(4-methoxyphenyl)benzamide] | 1100 |
| CCOc1cc(NC(=O)c2cccc(S(=O)(=O)c3ccccn3)c2)[nH]n1 [Example 117, N-(3-ethoxy-1H-pyrazol-5-yl)-3-(pyridin-2-ylsulfonyl)benzamide] | 280 |
| CCOC(=O)C1CCCN(S(=O)(=O)c2cccc(C(=O)Nc3ncccc3OC)c2)C1 (centres unmarked) [Example 55, Ethyl 1-[(3-{[(3-methoxypyridin-2-yl)amino]carbonyl}phenyl)sulfonyl]piperidine-3-carboxylate] | 310 |
| COc1cccnc1NC(=O)c1cccc(S(=O)(=O)N2CC3CCC2CC3)c1 [Example 51, 3-(2-Azabicyclo[2.2.2]oct-2-ylsulfonyl)-N-(3-methoxypyridin-2-yl)benzamide] | 330 |
| COc1ccc(NC(=O)c2cccc(S(=O)(=O)N3CCCCC3)c2)cn1 [Example 102, N-(6-methoxypyridin-3-yl)-3-(piperidin-1-ylsulfonyl)benzamide] | 3400 |
| CC(C)Oc1ccc(NC(=O)c2cccc(S(=O)(=O)N3CCN4CCCC4C3)c2)cc1 (centres unmarked) [Example 12, 3-(Octahydropyrrolo[1,2-a]pyrazin-2(1H)-ylsulfonyl)-N-(4-isopropoxyphenyl)benzamide trifluoroacetate] | 6800 |
| CC(C)c1ccc(NC(=O)c2cccc(S(=O)(=O)c3ccc(F)cc3)c2)cc1 [Example 137, 3-[(4-fluorophenyl)sulfonyl]-N-(4-isopropylphenyl)benzamide] | 690 |
| COc1ccccc1NC(=O)c1cccc(S(=O)(=O)N2CCCC(C(N)=O)C2)c1 (centres unmarked) [Example 43, 1-[(3-{[(2-methoxyphenyl)amino]carbonyl]phenyl)sulfonyl}piperidine-3-carboxamide] | 530 |
| COc1cccnc1NC(=O)c1cccc(S(=O)(=O)N2CCCC(C(N)=O)C2)c1 (centres unmarked) [Example 57, 1-[(3-{[(3-methoxypyridin-2-yl)amino]carbonyl}phenyl)sulfonyl]piperidine-3-carboxamide] | 830 |
| COc1cccnc1NC(=O)c1cccc(S(=O)(=O)N2CCOCC2)c1 [Example 47, N-(3-methoxypyridin-2-yl)-3-(morpholin-4-ylsulfonyl)benzamide] | 1400 |

Molecules with a lower IC50, results first:

| IC50 [nM] | SMILES |
| --- | --- |
| 180 | CC(C)c1ccc(NC(=O)c2cccc(S(=O)(=O)N3CCOCC3)c2)cc1 [Example 29, N-(4-isopropylphenyl)-3-(morpholin-4-ylsulfonyl)benzamide] |
| 150 | CC(C)Oc1ccc(NC(=O)c2cccc(S(=O)(=O)N3CCOC(COc4ccccc4)C3)c2)cc1 (centres unmarked) [Example 9, N-(4-isopropoxyphenyl)-3-{[2-(phenoxymethyl)morpholin-4-yl]sulfonyl}benzamide] |
| 150 | COc1ccc(S(=O)(=O)N2CCCCC2)cc1C(=O)Nc1ncccc1OC [Example 156, 2-Methoxy-N-(3-methoxypyridin-2-yl)-5-(piperidin-1-ylsulfonyl)benzamide] |
| 200 | CC(C)Oc1ccc(NC(=O)c2cccc(S(=O)(=O)N3CCCC(OCc4ccccn4)C3)c2)cc1 (centres unmarked) [Example 21, N-(4-isopropoxyphenyl)-3-{[3-(pyridin-2-ylmethoxy)piperidin-1-yl]sulfonyl}benzamide trifluoroacetate] |
| 18 | CC(C)Oc1cc(NC(=O)c2cccc(S(=O)(=O)N3CCOCC3)c2)[nH]n1 [Example 63, 3-Isopropoxy-5-{[3-(morpholin-4-ylsulfonyl)benzoyl]amino}-1H-pyrazole hydrochloride] |
| 10 | CC(C)Oc1cc(NC(=O)c2cccc(S(=O)(=O)N3CCC(F)CC3)c2)[nH]n1 [Example 67, 5-({3-[(4-fluoropiperidin-1-yl)sulfonyl]benzoyl}amino)-3-isopropoxy-1H-pyrazole hydrochloride] |
| 24 | CCCOc1cc(NC(=O)c2cccc(S(=O)(=O)c3ccccn3)c2)[nH]n1 [Example 118, N-(3-propoxy-1H-pyrazol-5-yl)-3-(pyridin-2-ylsulfonyl)benzamide] |
| 100 | CCc1cnc(NC(=O)c2cccc(S(=O)(=O)N3CCCCC3)c2)c(OC)c1 [Example 108, N-(5-ethyl-3-methoxypyridin-2-yl)-3-(piperidin-1-ylsulfonyl)benzamide] |
| 12 | CC(C)Oc1cc(NC(=O)c2cccc(S(=O)(=O)c3ccccn3)c2)[nH]n1 [Example 116, N-(3-isopropoxy-1H-pyrazol-5-yl)-3-(pyridin-2-ylsulfonyl)benzamide] |
| 130 | CC(C)Oc1ccc(NC(=O)c2cccc(S(=O)(=O)N3CCC[C@@H]3C)c2)cc1 [Example 23, N-(4-isopropoxyphenyl)-3-{[(2S)-2-methylpyrrolidin-1-yl]sulfonyl}benzamide] |
| 54 | COc1cccnc1NC(=O)c1cccc(S(=O)(=O)N2CCCC(C(=O)NCc3ccccc3)C2)c1 (centres unmarked) [Example 61, N-benzyl-1-[(3-{[(3-methoxypyridin-2-yl)amino]carbonyl}phenyl)sulfonyl]piperidine-3-carboxamide] |

— patent US8420823B2, “Long-chain fatty acyl elongase inhibitor comprising arylsulfonyl derivative as active ingredient” (MSD K.K., priority 2008, dated 2013)
